Laboratory results: patent US5292521A, “Solid oral preparation containing a pyrrolidine derivative with a catechol group” (priority 1990, dated 1994)
Where two headings read alike, the source gives them in different places. Blank lines part the entries; values can stand above or below the compound they belong to.

Tests used:
[1] = Drug disposition after intravenous injection to beagles, plasma concentration-time curve (Experimental Example 1); type: in vivo; details: dog, 1 mg/kg iv; for half-life: iv, 1 mg/kg
Protocol: 1 mg/kg of compound (VIII) was administered to beagles by intravenous injection and the plasma concentration-time curve thereof of prepared to find that the half-life composed of three phases (phases a, b and c).

[2] = Correlation between AUC and oral dose in beagles, powder of ten-fold dilution with lactose in capsule; bioavailability from regression line (Experimental Example 2); type: in vivo; details: oral
Protocol: Compound (VIII) or compound V was formulated into a powder of ten-fold dilution with lactose. It was given to beagles in an amount ranging from 0.3 to 30 mg/kg as a capsule by oral administration and the plasma concentration-time curve thereof was prepared. The regression line equation was as follows: […]

[3] = Oral administration to fasted beagles of compound (II) or (III) with ascorbic acid, plasma drug disposition parameters (Experimental Examples 5 and 6); details: for AUC(0-t) at 8 h / Cmax / Tmax: po, 3 mg/kg, n=2; for AUC(0-t) at 8 h: AUC (0-8 hr) mean ± SE; for Cmax: Cmax mean ± SE; for Tmax: Tmax mean ± SE
Protocol: The term "bioavailability" herein is defined as follows: a plasma concentration-time curve of a drug after being administered once is prepared in each case of administration by intravenous injection and oral administration with the same amount of the drug, and the availability is represented by the ratio (F) of the area under the plasma concentration-time curve in the case of oral administration ([AUC]PO)to the area under the plasma concentration-time curve in the case of intravenous injection ([AUC]IV): [formula]
The ratio of an AUC value obtained when one or more compounds selected from the group consisting of organic acids and salts thereof are added to an AUC value obtained when no such compound(s) is (are) added will be referred to as "addition effect ratio".
350 mg of ascorbic acid and 70 mg of lactose were added to 70 mg of compound (II) and the mixture was thoroughly pulverized and mixed in a mortar. The mixture was filled in each of No. 2 gelatin capsules in such an amount that the dose of compound (II) would be 3 mg/kg to obtain a preparation.
A control sample free from ascorbic acid was prepared by preparing a powder of 7-fold dilution with lactose (70 mg of compound (II) plus 420 mg of lactose) and filled in No. 2 capsules in such an amount that the dose of compound (II) would be 3 mg/kg to obtain a preparation.
(a) Administration and collection of blood sample
(§1) Four beagles were divided into two groups (i.e. a group to which ascorbic acid was given and a control group) after fasting overnight (14 hours) and a preparation comprising 3 mg/kg of compound (II) and 15 mg/kg of ascorbic acid or a control preparation comprising no ascorbic acid was given together with 30 ml of water by oral administration. No food was given also in the course of collection of blood sample. 3 ml of the whole blood was sampled through a vein of a foreleg by means of a heparinized syringe, immediately cooled with ice/water and centrifuged (1200 rpm, 3 min, 4° C.). The blood plasma was separated and a citrate buffer solution (pH 3.5, 100 μl) was added thereto to adjust the pH to 5.0. The plasma thus treated was kept frozen at -20° C. The points of collection of blood samples were before the administration and 10, 20, 30 and 45 minutes and 1, 1.5, 2, 3, 4, 6 and 8 hours after the administration.
(b) Method of analysis of concentration of unchanged substance in blood plasma
(c) HPLC determination conditions
The drug disposition parameters of each sample were determined from the data obtained by the oral administration of the preparation comprising 3 mg/kg of compound (II) and 15 mg/kg of ascorbic acid or a control preparation comprising no ascorbic acid to beagles while they were kept fasting.
350 mg of ascorbic acid and 70 mg of lactose were added to 70 mg of compound (III) and the mixture was thoroughly pulverized and mixed in a mortar. The mixture was filled in each of No. 2 gelatin capsules in such an amount that the dose of compound (III) would be 3 mg/kg to obtain a preparation.
A control sample free from ascorbic acid was prepared by preparing a powder of 7-fold dilution with lactose (70 mg of compound (III) plus 420 mg of lactose) and filled in No. 2 capsules in such an amount that the dose of compound (III) would be 3 mg/kg to obtain a preparation.
as §1, with “(III)” for “(II)”, “syringe,” for “syringe, immediately”, “5.0.” for “5.0. The plasma thus treated was kept frozen at -20° C. The points of collection of blood samples were before the administration and 10, 20, 30 and 45 minutes and 1, 1.5, 2, 3, 4, 6 and 8 hours after the administration.”

[4] = dog, in vivo, 3 mg/kg oral + ascorbic acid 15 mg/kg
[5] = dog, in vivo, 3 mg/kg oral, none (control)
[6] = dog, plasma, 3 mg/kg oral + ascorbic acid 15 mg/kg
[7] = dog, plasma, 3 mg/kg oral, none (control)

clearance ([1]; read-out: CLtotal): 78 mL/min/kg
C0 ([1]; read-out: CP^0): 2290 ng/mL
MRT ([1]; read-out: MRT (mean residence time in the plasma) (converted)): 14.5 min
Vd ([1]; read-out: Vc): 0.44 L/kg
half-life ([1]; phase a, read-out: t1/2a): 1.3 min
half-life ([1]; phase b, read-out: t1/2b): 8.11 min
half-life ([1]; phase c, read-out: t1/2c): 26.9 min
bioavailability ([2]; dog, plasma, efficacious dose around 3 to 5 mg/kg): 4 to 5%
gradient of regression line log(AUC) vs log(dose) ([2]; 0.3 to 30 mg/kg): 1.218
increase of AUC value when the dose is increased 10-fold ([2]; 0.3 to 30 mg/kg): 16.5 -fold
intercept of regression line log(AUC) vs log(dose) ([2]; 0.3 to 30 mg/kg): 0.894
SMILES: Br.Oc1ccc([C@@H]2CNC[C@H]2c2cccc(O)c2Cl)cc1O (relative stereo) [compound (VIII), trans-3-(2-chloro-3-hydroxyphenyl)-4-(3,4-dihydroxyphenyl)pyrrolidine hydrobromide]

SMILES: Br.Oc1ccc(C2CNCc3c2ccc(O)c3O)cc1O (stereo not drawn) [compound (II), 7,8-dihydroxy-4-(3,4-dihydroxyphenyl)-1,2,3,4-tetrahydroisoquinoline hydrobromide]
Addition effect (AUC ratio) ([3]; 3 mg/kg oral + ascorbic acid 15 mg/kg): 1.39
Addition effect (AUC ratio) ([3]; 3 mg/kg oral, none (control)): 1.00
AUC(0-t) at 8 h [3, 4]: 116.6 ± 0.1 ng·h/mL
AUC(0-t) at 8 h [3, 5]: 83.6 ± 4.7 ng·h/mL
Cmax [3, 4]: 89.6 ± 11.8 ng/mL
Cmax [3, 5]: 95.6 ± 42.2 ng/mL
Tmax [3, 4]: 37.8 ± 7.8 min
Tmax [3, 5]: 25.2 ± 5.4 min
increase of AUC value ([3]; with ascorbic acid): about 1.4 -fold

increase of AUC value ([3]; dog, in vivo): about 3.3 -fold
AUC(0-t) at 8 h [3, 6]: 197 ± 12.5 ng·h/mL
AUC(0-t) at 8 h [3, 7]: 59.8 ± 16.9 ng·h/mL
Cmax [3, 6]: 91.9 ± 0.4 ng/mL
Cmax [3, 7]: 39 ± 16.6 ng/mL
Tmax [3, 6]: 30 ± 15 min
Tmax [3, 7]: 45 ± 15 min
SMILES: CS(=O)(=O)O.Oc1ccc(C2CNCCc3c2cc(O)c(O)c3Cl)cc1 (stereo not drawn) [compound (III), 6-chloro-2,3,4,5-tetrahydro-1-(4-hydroxyphenyl)-1H-3-benzazepine-7,8-diol methanesulfonate, reference compound]
